Laboratory results as given in ChEMBL document CHEMBL1201862, “PubChem BioAssay data set” (2004).
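Compound exposure: 48 hours, 5 concentrations, 96-well plates. GI50 = concentration required for 50% inhibition of growth.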 Active and inactive are the calls of the source. Cut-off read from the data, not from the text of the source: active = GI50 up to about 1.1 µM and inactive = higher.

Experiments:
Assay in all cases: DTP human tumour cell line panel, 48 h
IGROV-1 = system: IGROV-1
786-0 = system: 786-0
NCI-H522 = system: NCI-H522
A549 = system: A549
UO-31 = system: UO-31
SNB-19 = system: SNB-19
SF-539 = system: SF-539
NCI-H226 = system: NCI-H226
KM12 = system: KM12
SW-620 = system: SW-620
SK-MEL-2 = system: SK-MEL-2
HL-60 = system: HL-60
SK-OV-3 = system: SK-OV-3
OVCAR-5 = system: OVCAR-5
SK-MEL-28 = system: SK-MEL-28
SK-MEL-5 = system: SK-MEL-5
HCT-15 = system: HCT-15
SF-295 = system: SF-295
MDA-N = system: MDA-N
Hs-578T = system: Hs-578T

| Compound | GI50 (IGROV-1) | GI50 (786-0) | GI50 (NCI-H522) | GI50 (A549) | GI50 (UO-31) | GI50 (SNB-19) | GI50 (SF-539) | GI50 (NCI-H226) | GI50 (KM12) | GI50 (SW-620) | GI50 (SK-MEL-2) | GI50 (HL-60) | GI50 (SK-OV-3) | GI50 (OVCAR-5) | GI50 (SK-MEL-28) | GI50 (SK-MEL-5) | GI50 (HCT-15) | GI50 (SF-295) | GI50 (MDA-N) | GI50 (Hs-578T) |
| --- | --- | --- | --- | --- | --- | --- | --- | --- | --- | --- | --- | --- | --- | --- | --- | --- | --- | --- | --- | --- |
| O=CC(O)C(O)C(O)COc1cc(CO)cc2c1C(=O)c1ccccc1C2=O (configuration not stated) | > 100 µM (inactive) | > 100 µM (inactive) | > 100 µM (inactive) | > 100 µM (inactive) | > 100 µM (inactive) | > 100 µM (inactive) | > 100 µM (inactive) | > 100 µM (inactive) | > 100 µM (inactive) | > 100 µM (inactive) | > 95.5 µM (inactive) | > 100 µM (inactive) | > 100 µM (inactive) | > 100 µM (inactive) | > 100 µM (inactive) | 79.4 µM (inactive) | > 100 µM | > 100 µM (inactive) |  |  |
| CC(=O)NC1C(CO)O[C@@H]2OC(C)(C)O[C@H]12 (some centres not stated) | > 100 µM (inactive) | > 100 µM (inactive) | > 100 µM (inactive) | > 100 µM (inactive) | > 100 µM (inactive) | > 100 µM (inactive) | > 100 µM (inactive) |  | > 100 µM (inactive) | > 100 µM (inactive) | > 100 µM (inactive) | > 100 µM (inactive) |  | > 100 µM (inactive) | > 100 µM (inactive) |  | > 100 µM | > 100 µM (inactive) | > 100 µM (inactive) | > 100 µM (inactive) |
| COc1ccccc1C1CC(=O)CC(c2ccccc2OC)C12C(=O)NC(=S)NC2=O (configuration not stated) | 68.9 µM (inactive) | > 100 µM (inactive) | 51.3 µM (inactive) |  | 87.9 µM (inactive) | > 100 µM (inactive) | 81.8 µM (inactive) | > 100 µM (inactive) | 62.8 µM (inactive) | 48.5 µM (inactive) | 73.8 µM (inactive) | 9.93 µM (inactive) |  | > 100 µM (inactive) | 32.4 µM (inactive) | 50.2 µM (inactive) | 42.5 µM | > 100 µM (inactive) | 18.2 µM (inactive) |  |
| COc1cc2c(c(OC)c1OC)-c1ccc(SC)c(=O)cc1C(CO)C2 (configuration not stated) | 0.169 µM (active) | 0.355 µM (active) | 0.0527 µM (active) | 0.22 µM (active) | 0.455 µM (active) | 0.802 µM (active) | 0.143 µM (active) | 0.279 µM (active) | 0.0813 µM (active) | 0.167 µM (active) | 0.209 µM (active) | 0.0682 µM (active) | 0.109 µM (active) | 0.431 µM (active) | 0.0735 µM (active) | 0.172 µM (active) | 0.227 µM | 0.175 µM (active) |  |  |
| CCOC(=O)C(O)Cc1cnc2ccccc2n1 (configuration not stated) | 94.2 µM (inactive) | > 100 µM (inactive) | 79.3 µM (inactive) | > 100 µM (inactive) | > 100 µM (inactive) | > 100 µM (inactive) | > 100 µM (inactive) |  | > 100 µM (inactive) | > 100 µM (inactive) | > 100 µM (inactive) |  | > 100 µM (inactive) | > 100 µM (inactive) | > 100 µM (inactive) | > 100 µM (inactive) | > 100 µM |  | > 100 µM (inactive) | > 100 µM (inactive) |
| O=C(/C=C(\S/C=C(/c1ccccc1)N1CCn2c(C(=O)c3ccccc3)c(C(=O)c3ccccc3)c(C(=O)c3ccccc3)c21)C(=O)c1ccccc1)c1ccccc1 | > 10 µM (inactive) | > 10 µM (inactive) | > 10 µM (inactive) | > 10 µM (inactive) |  | > 10 µM (inactive) | > 10 µM (inactive) |  | > 10 µM (inactive) | > 10 µM (inactive) | > 10 µM (inactive) | > 10 µM (inactive) | > 10 µM (inactive) | > 10 µM (inactive) | > 10 µM (inactive) | > 10 µM (inactive) | > 10 µM | > 10 µM (inactive) | > 10 µM (inactive) | > 10 µM (inactive) |
| CC(C)Cc1cnc(CC(C)C)c(=O)[nH]1 | > 100 µM (inactive) | > 100 µM (inactive) |  | > 100 µM (inactive) | > 100 µM (inactive) | > 100 µM (inactive) |  |  | > 100 µM (inactive) | > 100 µM (inactive) | > 100 µM (inactive) |  | > 100 µM (inactive) | > 100 µM (inactive) | > 100 µM (inactive) | > 100 µM (inactive) | > 100 µM | > 100 µM (inactive) | > 100 µM (inactive) | > 100 µM (inactive) |
| OB1OCc2ccccc21 [BENZOXABOROLE] | 35.2 µM (inactive) | 39.7 µM (inactive) |  | 33.8 µM (inactive) | 32.4 µM (inactive) | 60.8 µM (inactive) | 25.1 µM (inactive) | 39.5 µM (inactive) | 65.9 µM (inactive) | 30.7 µM (inactive) | 37.2 µM (inactive) | > 100 µM (inactive) | 16.1 µM (inactive) |  | 21.6 µM (inactive) | 46.9 µM (inactive) | 24.7 µM | 12.1 µM (inactive) |  | 62.1 µM (inactive) |
| CCCCCC(/C=C/C1CCC(=O)C1)OCOCCOC (configuration not stated) | 42.2 µM (inactive) | 19.3 µM (inactive) | 17.1 µM (inactive) | 59.7 µM (inactive) | 17.9 µM (inactive) | > 53.3 µM (inactive) | 19.8 µM (inactive) | 29.1 µM (inactive) | 45.9 µM (inactive) | 29.8 µM (inactive) | 64.6 µM (inactive) | 42.1 µM (inactive) | > 100 µM (inactive) | > 100 µM (inactive) | > 77.3 µM (inactive) | 47.8 µM (inactive) | 31.1 µM | > 58.7 µM (inactive) | 40.2 µM (inactive) |  |
| NC(Cc1ccc2nc3c4ccccc4c(=O)cc-3oc2c1)C(=O)O (configuration not stated) | > 100 µM (inactive) | > 100 µM (inactive) |  | 44.2 µM (inactive) | > 100 µM (inactive) | > 100 µM (inactive) | > 100 µM (inactive) |  | > 100 µM (inactive) | > 100 µM (inactive) | 53.3 µM (inactive) | > 100 µM (inactive) | > 100 µM (inactive) | > 100 µM (inactive) | > 100 µM (inactive) | 18 µM (inactive) | > 100 µM | > 100 µM (inactive) | 16 µM (inactive) | 56.1 µM (inactive) |
| Cc1cccc(-c2nnc(S)[nH]2)c1 | > 100 µM (inactive) | > 100 µM (inactive) | > 100 µM (inactive) | > 100 µM (inactive) | > 100 µM (inactive) | > 100 µM (inactive) | > 100 µM (inactive) | > 100 µM (inactive) | > 100 µM (inactive) | > 100 µM (inactive) | > 100 µM (inactive) | > 100 µM (inactive) | > 100 µM (inactive) | > 100 µM (inactive) | > 100 µM (inactive) | > 100 µM (inactive) | > 100 µM | > 100 µM (inactive) |  |  |
| CC1=Nn2c(nnc2-c2ccccc2Cl)NC(C)(C)C1 | > 100 µM (inactive) | > 100 µM (inactive) | 23.8 µM (inactive) | > 100 µM (inactive) | > 100 µM (inactive) | > 100 µM (inactive) | > 100 µM (inactive) | > 100 µM (inactive) | > 100 µM (inactive) | 6.25 µM (inactive) | > 100 µM (inactive) | 50.9 µM (inactive) | > 100 µM (inactive) | > 100 µM (inactive) | > 100 µM (inactive) | > 100 µM (inactive) | 51.9 µM | > 100 µM (inactive) |  |  |
| C[n+]1c2ccc(Cl)cc2nc2cc(-c3ccccc3)ccc21 | 10 µM (inactive) | 35.3 µM (inactive) | 16 µM (inactive) | 4.81 µM (inactive) | 21.3 µM (inactive) | 5.12 µM (inactive) | 15.8 µM (inactive) | 19.1 µM (inactive) | 4.65 µM (inactive) | 4.7 µM (inactive) | 19.8 µM (inactive) | 3.06 µM (inactive) |  | 24.1 µM (inactive) | 20.1 µM (inactive) | 6.68 µM (inactive) | 7.76 µM | 1.74 µM (inactive) |  | 25.5 µM (inactive) |
| CC(=O)Oc1cc2c(cc1OC(C)=O)[C@H]1CC[C@]3(C)[C@@H](OC(C)=O)CC[C@H]3[C@@H]1CC2 | 3.77 µM (inactive) | 4.78 µM (inactive) | 1.16 µM (inactive) | 7.96 µM (inactive) | 2.19 µM (inactive) | 6.65 µM (inactive) |  |  | 8.91 µM (inactive) | 1.9 µM (inactive) | 3.06 µM (inactive) |  | 6.38 µM (inactive) | 10.1 µM (inactive) | 4.15 µM (inactive) | 5.62 µM (inactive) | 1.48 µM | 4.49 µM (inactive) | 0.773 µM (active) | 1.87 µM (inactive) |
| C=C1C(=O)O[C@H]2C1C[C@H](O)/C(C)=C/CC[C@@]1(C)O[C@H]21 (some centres not stated) | 14.8 µM (inactive) | 16.9 µM (inactive) | 1.69 µM (inactive) | > 100 µM (inactive) | 14.8 µM (inactive) | 60.1 µM (inactive) |  |  | 14.7 µM (inactive) | 2.09 µM (inactive) | 15.2 µM (inactive) |  | 36.5 µM (inactive) | 19.1 µM (inactive) | 23.8 µM (inactive) | 10.7 µM (inactive) | 12.2 µM | 31.5 µM (inactive) | 13.7 µM (inactive) | 23.6 µM (inactive) |
| Fc1ccccc1/N=c1\oc2ccc(Br)cc2cc1-c1nc2ccccc2[nH]1 | 8.95 µM (inactive) | 3.18 µM (inactive) | 1.75 µM (inactive) | 7.01 µM (inactive) | 8.04 µM (inactive) | 4.26 µM (inactive) | 1.87 µM (inactive) | 4.26 µM (inactive) | > 20.7 µM (inactive) | > 21.9 µM (inactive) | 8.18 µM (inactive) | > 100 µM (inactive) | 10.7 µM (inactive) | 34.8 µM (inactive) | 14.5 µM (inactive) | 8.49 µM (inactive) | 30.1 µM | 5.48 µM (inactive) |  | 0.485 µM (active) |
